From PubChem BioAssay AID248 (DTP/NCI, 2004)
Where “and” joins values, the source holds several entries; their conditions need not be identical. Equal entries are not always repeated. Toxic doses and inconclusive results are not listed. Rule as the data show it: active = T/C of 150% or more; inactive = T/C below 125%.

Tested on: L1210 leukemia ip in BDF1 mice, survival T/C
Experiment: NCI In Vivo Anticancer Drug Screen. Data for tumor model L1210 Leukemia (intraperitoneal) in B6D2F1 (BDF1) mice
Details: endpoint: mean survival time, higher = longer survival
Procedure, shortened: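 Antitumor effect is assessed in tumor-bearing animals. Survival in the compound arm is compared with a vehicle-dosed control arm and expressed as their quotient.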

[1] = dose: 50.0 mg/kg/injection, schedule: Q01DX001 (ip), vehicle: carboxymethylcellulose (CMC)
[2] = dose: 100.0 mg/kg/injection, schedule: Q01DX001 (ip), vehicle: carboxymethylcellulose (CMC)
[3] = dose: 200.0 mg/kg/injection, schedule: Q01DX001 (ip), vehicle: carboxymethylcellulose (CMC)
[4] = dose: 400.0 mg/kg/injection, schedule: Q01DX001 (ip), vehicle: carboxymethylcellulose (CMC)
[5] = dose: 5.0 mg/kg/injection, schedule: Q01DX001 (ip), vehicle: saline
[6] = dose: 100.0 mg/kg/injection, schedule: Q04DX002 (ip), vehicle: saline
[7] = dose: 200.0 mg/kg/injection, schedule: Q04DX002 (ip), vehicle: saline
[8] = dose: 100.0 mg/kg/injection, schedule: Q01DX009 (ip), vehicle: saline
[9] = dose: 200.0 mg/kg/injection, schedule: Q01DX009 (ip), vehicle: saline
[10] = dose: 50.0 mg/kg/injection, schedule: Q01DX009 (ip), vehicle: Klucel (hydroxypropylcellulose) (HPC)
[11] = dose: 100.0 mg/kg/injection, schedule: Q01DX009 (ip), vehicle: Klucel (hydroxypropylcellulose) (HPC)
[12] = dose: 200.0 mg/kg/injection, schedule: Q01DX009 (ip), vehicle: Klucel (hydroxypropylcellulose) (HPC)
[13] = dose: 400.0 mg/kg/injection, schedule: Q01DX009 (ip), vehicle: saline

Measured: T/C

COc1ccc2c(c1OC(C)=O)-c1cc(OC(C)=O)cc3c1C(C2)N(C)CC3 (stereo unspecified)
inactive: dose: 25.0 mg/kg/injection, schedule: Q04DX003 (ip), vehicle: DMSO 93 % of control | dose: 50.0 mg/kg/injection, schedule: Q04DX003 (ip), vehicle: DMSO 95 % of control | dose: 100.0 mg/kg/injection, schedule: Q04DX003 (ip), vehicle: DMSO 106 % of control

O=C(C=C(C(F)(F)F)C(F)(F)F)c1ccc(Cl)c([N+](=O)[O-])c1
inactive: dose: 0.5 mg/kg/injection, schedule: Q01DX009 (ip), vehicle: other 98 % of control | dose: 1.0 mg/kg/injection, schedule: Q01DX009 (ip), vehicle: other 95 % of control | dose: 2.5 mg/kg/injection, schedule: Q01DX009 (ip), vehicle: other 101 % of control | dose: 2.5 mg/kg/injection, schedule: Q01DX009 (ip), vehicle: saline with Tween-80 96 % of control | dose: 6.0 mg/kg/injection, schedule: Q01DX001 (ip), vehicle: saline with Tween-80 103 % of control | dose: 12.0 mg/kg/injection, schedule: Q01DX001 (ip), vehicle: saline with Tween-80 98 % of control | dose: 25.0 mg/kg/injection, schedule: Q01DX001 (ip), vehicle: saline with Tween-80 95 % of control and 100 % of control

CC(=O)c1ccc(S(=O)(=O)c2ccccc2)cc1
inactive: [1] 93 % of control | [2] 93 % of control | dose: 100.0 mg/kg/injection, schedule: Q04DX003 (ip), vehicle: saline with Tween-80 96 % of control | [3] 101 % of control | dose: 200.0 mg/kg/injection, schedule: Q04DX003 (ip), vehicle: saline with Tween-80 91 % of control | [4] 95 % of control | dose: 400.0 mg/kg/injection, schedule: Q04DX003 (ip), vehicle: saline with Tween-80 107 % of control

COc1ccc(OC)c2c(=O)cc[nH]c12
inactive: [2] 103 % of control | [3] 94 % of control

CCOC(=O)C(C(C)=O)C(c1ccc([N+](=O)[O-])cc1)C(C(C)=O)C(=O)OCC (stereo unspecified)
inactive: dose: 3.12 mg/kg/injection, schedule: Q01DX009 (ip), vehicle: saline 86 % of control | dose: 6.25 mg/kg/injection, schedule: Q01DX009 (ip), vehicle: saline 88 % of control | dose: 12.5 mg/kg/injection, schedule: Q01DX009 (ip), vehicle: saline 89 % of control | dose: 25.0 mg/kg/injection, schedule: Q01DX009 (ip), vehicle: saline 86 % of control

CC(=O)N(NC(=O)c1cccnc1)C(C)=O
inactive: dose: 3.75 mg/kg/injection, schedule: Q01DX015 (oral), vehicle: carboxymethylcellulose (CMC) 101 % of control | dose: 7.5 mg/kg/injection, schedule: Q01DX015 (oral), vehicle: carboxymethylcellulose (CMC) 100 % of control | dose: 15.0 mg/kg/injection, schedule: Q01DX015 (oral), vehicle: carboxymethylcellulose (CMC) 100 % of control | dose: 30.0 mg/kg/injection, schedule: Q01DX015 (oral), vehicle: carboxymethylcellulose (CMC) 106 % of control | dose: 62.0 mg/kg/injection, schedule: Q01DX Z (oral), vehicle: carboxymethylcellulose (CMC) 91 % of control | dose: 125.0 mg/kg/injection, schedule: Q01DX Z (oral), vehicle: carboxymethylcellulose (CMC) 91 % of control | dose: 250.0 mg/kg/injection, schedule: Q01DX Z (oral), vehicle: carboxymethylcellulose (CMC) 95 % of control

C=C(C)[P+](C)(c1ccccc1)c1ccccc1
inactive: dose: 2.5 mg/kg/injection, schedule: Q01DX001 (ip), vehicle: saline 102 % of control | [5] 105 % of control

NOC(=O)c1ccccc1
inactive: [6] 105 % of control | [7] 102 % of control

CC(=O)Oc1c2c(n3c1CCC3)CC(C)CC2=O (stereo unspecified)
inactive: dose: 50.0 mg/kg/injection, schedule: Q04DX002 (ip), vehicle: Klucel (hydroxypropylcellulose) (HPC) 97 % of control | dose: 100.0 mg/kg/injection, schedule: Q04DX002 (ip), vehicle: Klucel (hydroxypropylcellulose) (HPC) 97 % of control | dose: 200.0 mg/kg/injection, schedule: Q04DX002 (ip), vehicle: Klucel (hydroxypropylcellulose) (HPC) 102 % of control

CCCCCCCCC/C(C)=N/NC(=O)c1ccc[n+](C)c1
inactive: dose: 50.0 mg/kg/injection, schedule: Q01DX009 (ip), vehicle: saline 93 % of control | [8] 93 % of control | [9] 96 % of control

COC(=O)c1nc2ccc([N+](=O)[O-])cc2n1O
inactive: dose: 100.0 mg/kg/injection, schedule: Q01DX001 (ip), vehicle: saline 101 % of control | dose: 200.0 mg/kg/injection, schedule: Q01DX001 (ip), vehicle: saline 93 % of control | dose: 400.0 mg/kg/injection, schedule: Q01DX001 (ip), vehicle: saline 96 % of control

COc1ccc(NC(=O)Oc2ccccc2Cc2ccccc2)cc1
inactive: [10] 95 % of control | [11] 94 % of control | dose: 100.0 mg/kg/injection, schedule: Q04DX003 (ip), vehicle: Klucel (hydroxypropylcellulose) (HPC) 97 % of control | [12] 103 % of control | dose: 200.0 mg/kg/injection, schedule: Q04DX003 (ip), vehicle: Klucel (hydroxypropylcellulose) (HPC) 91 % of control

Cc1nccnc1Sc1ccc(Br)cc1
inactive: [10] 106 % of control | [11] 113 % of control | [12] 106 % of control

CC/C(C)=C\CC/C(C)=C/COc1cccc(OC)c1
inactive: dose: 100.0 mg/kg/injection, schedule: Q04DX002 (ip), vehicle: saline with Tween-80 108 % of control | dose: 200.0 mg/kg/injection, schedule: Q04DX002 (ip), vehicle: saline with Tween-80 101 % of control | dose: 400.0 mg/kg/injection, schedule: Q04DX002 (ip), vehicle: saline with Tween-80 103 % of control

O=C(O)c1nnn(Cc2ccccc2)n1
inactive: dose: 100.0 mg/kg/injection, schedule: Q04DX003 (ip), vehicle: acetone 94 % of control | dose: 200.0 mg/kg/injection, schedule: Q04DX003 (ip), vehicle: acetone 96 % of control | dose: 400.0 mg/kg/injection, schedule: Q04DX003 (ip), vehicle: acetone 96 % of control

CS(=O)(=O)c1ccc2c(c1)-c1ccccc1C2=O
inactive: [2] 96 % of control | [3] 104 % of control | [4] 98 % of control

NC(=S)N1CCOCC1
inactive: [6] 97 % of control | [7] 101 % of control | dose: 400.0 mg/kg/injection, schedule: Q04DX002 (ip), vehicle: saline 108 % of control

CCSC(=S)n1c2ccccc2c2ccccc21
inactive: dose: 100.0 mg/kg/injection, schedule: Q01DX001 (ip), vehicle: Klucel (hydroxypropylcellulose) (HPC) 98 % of control | [11] 101 % of control | dose: 200.0 mg/kg/injection, schedule: Q01DX001 (ip), vehicle: Klucel (hydroxypropylcellulose) (HPC) 101 % of control | [12] 96 % of control | dose: 400.0 mg/kg/injection, schedule: Q01DX001 (ip), vehicle: Klucel (hydroxypropylcellulose) (HPC) 92 % of control | dose: 400.0 mg/kg/injection, schedule: Q01DX009 (ip), vehicle: Klucel (hydroxypropylcellulose) (HPC) 101 % of control

COC(=O)/C=C\C=C\C(=O)OC
inactive: [1] 95 % of control | [2] 94 % of control | [3] 98 % of control | [4] 98 % of control

CCC(=O)C(c1ccccc1)(c1ccccc1)C(C)CN(C)C (stereo unspecified)
inactive: [5] 102 % of control | dose: 10.0 mg/kg/injection, schedule: Q01DX001 (ip), vehicle: saline 104 % of control | dose: 20.0 mg/kg/injection, schedule: Q01DX001 (ip), vehicle: saline 96 % of control | dose: 40.0 mg/kg/injection, schedule: Q01DX001 (ip), vehicle: saline 87 % of control

CCNc1cc(Cl)c(C(=O)O)cc1[N+](=O)[O-]
inactive: [8] 116 % of control | [9] 103 % of control | [13] 95 % of control

CCOC(=O)CCN1CCCCCC1
inactive: [8] 104 % of control | dose: 100.0 mg/kg/injection, schedule: Q04DX003 (ip), vehicle: saline 92 % of control | [9] 104 % of control | dose: 200.0 mg/kg/injection, schedule: Q04DX003 (ip), vehicle: saline 98 % of control | [13] 101 % of control | dose: 400.0 mg/kg/injection, schedule: Q04DX003 (ip), vehicle: saline 102 % of control
